Reference: patent US20240358678A1, “METHODS AND COMPOSITIONS FOR ENHANCING CHEMOTHERAPEUTIC DRUG UPTAKE INTO BRAIN TUMORS” (Brown University, priority 2023, published 2024)

Assays:
HCMEC/D3 cells [1] = assay: Bulk RNA-sequencing of HCMEC/D3 cells treated with BIA; assay type: cell-based, human
Protocol: RNA-sequencing of HCMEC/D3 cells treated with BIA: For RNA-sequencing, HCMEC/D3 cells were plated at a density of 500,000 cells/well in a 6-well plate. Left to grow for 24 hours, and then treated with 1 μM of BIA or DMSO (control). After 24 hours, cells were collected and processed for RNA extraction using the column-based RNeasy kit (QIAGEN), following provider's instructions. RNA quality and quantity were quantified using a Nanodrop™ One (Invitrogen). At least 500 ng of RNA was submitted for bulk RNA-sequencing at GeneWiz (Azenta Life Sciences). QC was accessed, and library was prepared with Poly(A) selection. Sequencing was performed using Illumina HiSeq.
Differential gene expression on the RNA-seq raw data (FASTQ files) was analyzed by Azenta Life Sciences using DESeq2 aligning to human transcriptome. Data QC was verified. Log2 fold change (Log 2FC) was calculated by Log2 (BIA group mean normalized counts/Control group mean normalized counts). The Wald test p-value and Benjamini-Hochberg adjusted p-value were calculated. A heatmap and volcano plot of top adjusted p-value differentially expressed genes (DEGs) in ensemble ID annotation bi-clustering to treatment conditions were generated. Control and BIA groups consisted of three-independent samples.

HBMEC cells = assay: Real-time PCR for CDH5 in HBMEC cells; assay type: cell-based, human; conditions: 1 μM BIA, up to 48 hours
HCMEC/D3 cells [2] = assay: Cell titer Glo viability assay on HCMEC/D3; assay type: cell-based, human; conditions: ~1-5 μM BIA, 72 hours
Protocol: Cell viability assay: Cells were plated at a density of 1500 cells/well in black-well clear bottom 96-well plates and left growing in culture conditions overnight. Next day, cells were treated with titrating doses of the indicated compounds. […] For BIA and cisplatin combinatorial studies, cells were incubated with BIA and cisplatin, and corresponding controls, for 5 days. Next, we used the Cell-Titer Glo 3D (Promega) following provider's guidelines and quantified for luminescence signal using a Molecular Devices SpectraMax M2 plate reader. Conditions were repeated in triplicates.

HCMEC/D3 cells [3] = assay: Visual assessment (brightfield) of HCMEC/D3 cells; assay type: cell-based, human; conditions: BIA 72 hours; elongated phenotype with long filipodia
HCMEC/D3 cells [4] = assay: Cell cycle analysis via flow cytometry of HCMEC/D3; assay type: cell-based, human; conditions: BIA 0.5 μM or 1 μM
Protocol: Flow cytometry for cell cycle, DNA damage and apoptosis assays: For cell cycle analysis, 100,000 HCMEC/D3 cells were plated in 6-well plates and treated with indicated concentrations of BIA or control for 48 hours. Then, cells were washed twice with PBS and fixed/permeabilized with 5 mL of cold 70% ethanol added dropped-wise while vortexing at low speed. Cells were stored for 1 day at −20 degrees Celsius, washed three times with PBS and treated with 20 μg/mL RNAse I (Thermo Fisher Scientific) and stained with anti-Ki-67 FITC-conjugated (1:1000) (BD Biosystems) and 1.5 μM propidium iodide (Thermo Fisher Scientific). Amer 30 minutes of incubation in the dark, cells were analyzed using a CytoFLEX system (Beckman Coulter). 50,000 events were counted, and data was analyzed using the CytoFLEX system software (Beckman Coulter).

HCMEC/D3 cells [5] = assay: Secretome (Luminex cytokine) quantification; assay type: cell-based, human; conditions: BIA 48 hours
Protocol: Secretome quantification: For cytokine analysis of brain endothelial cells after BIA exposure, HCMEC/D3 cells were plated at a density of 500,000 cells/well in a 6-well plate. Cells were treated with indicated doses of BIA or DMSO for 48 hours. Then, 1 mL of media was collected and processed for cytokine quantification in a Luminex platform (Thermo Fischer Scientific) following the provider's instructions.

HCMEC/D3 cells [6] = assay: Platinum levels in brain endothelial cells treated with BIA and cisplatin; assay type: cell-based, human; conditions: 2 μM BIA and cisplatin simultaneously
[7] = test system: G9-PCDH and G34-PCDH xenograft murine models; assay: Immunofluorescence of brain tissue from GBM xenograft models; assay type: in vivo, mice; conditions: 24 hours after 20 mg/kg BIA
Protocol: For mouse brain tissue staining, brains were collected from CO2 euthanized and PBS perfused tumor-bearing mice, and fixed in 10% formalin for 72 hours on rotation in the cold. Then, brains were transferred to 30% sucrose for 3 days at 4 degrees Celsius under rotation. Before cryo-sectioning, brains were frozen at −80 degree Celsius for more than 30 minutes, embedded in Optimal Cutting Temperature (OCT) compound (Fisher) and transferred to −27 degrees Celsius to a cryostat (Leica CM1950) for sectioning (20 μm thickness). Sections were placed on slides and staining followed as indicated above. All pictures were taken using a LSM 880 Zeiss confocal microscope.
In vivo studies: For intra-cranial tumor implantation, GBM neuro-spheres were grown to 70% confluency before dissociated into single cell on the day of surgery. 50,000 cells were resuspended in 3 μl of sterile PBS and injected intracranially into the striatum (2 mm right hemisphere, 1 mm frontal, 3 mm depth from bregma) of mice under anesthesia and stereo-tactically fixed. Tumors were left to grow for approximately 2-3 weeks, depending the cell line. Animals were randomized to treatment groups. BIA injections consisted of 20 mg/kg (i.p.), except if indicated otherwise. PPRX-1701 was administered at 20 mg/kg (i.v.) via lateral tail-vein. Cisplatin injections were performed at 5 mg/kg (maximum tolerated dose, i.p.). All GBM tumor murine studies involved continuous condition and weight assessments, with endpoint considered when 20% of weight loss and/or moderate-to-high grimace scale and neurological symptoms were observed.

[8] = Hydrophobicity / dissolution in physiological solutions; assay type: physicochemical; conditions: difficult to dissolve in physiological solutions
murine GBM models = conditions: cited from earlier work

For `CC(=O)ON=C1C(=C2C(=O)Nc3cc(Br)ccc32)Nc2ccccc21` [BIA, 6-bromoindirubin acetoxime], which ERG expression (HCMEC/D3 cells [1]) is on record?
The ERG expression was “downregulation of ERG”.

What about the “expression of WNT4, WNT10A and WNT11 ligands” value (HCMEC/D3 cells [1]) of the same molecule?
The value was “increase of expression”.

And the “expression of WNT7B and WNT ligand receptors FZD4 and FZD7” value (HCMEC/D3 cells [1])?
The value was “decrease”.

And the “CDH5 gene expression change upon BIA treatment” value (HCMEC/D3 cells [1]; BIA 1 μM, 24 hrs)?
The value was −3.06 fold, log 2.

What about the PCDH12 expression (HCMEC/D3 cells [1]; BIA 1 μM, 24 hrs) of the same molecule?
Its PCDH12 expression is “increased its expression”.

What about the “expression of PHGDH, AXIN2, TCF7, VLDLR and VEGFA” value (HCMEC/D3 cells [1]; BIA 1 μM, 24 hrs) of the same molecule?
Its value is “promoted expression”.

What about the “expression of angiogenesis-related genes MMRN2, CD93, ACVRL1, KDR, SMAD6 and S1PR3” value (HCMEC/D3 cells [1]; BIA 1 μM, 24 hrs) of the same molecule?
Its value is “downregulated”.

And the “significantly downregulated differentially expressed genes” value (HCMEC/D3 cells [1]; BIA 1 μM, 24 hrs)?
Its value is 652 genes.

What about the “significantly upregulated differentially expressed genes” value (HCMEC/D3 cells [1]; BIA 1 μM, 24 hrs) of the same molecule?
Its value is 862 genes.

What about the “BTB-genes modulated by BIA” value (HCMEC/D3 cells [1]; of the 12 BTB-genes of the in-silico screening) of the same molecule?
Its value is 8 of the 12.

What about the “CDH5 expression at the transcriptional level” value (HBMEC cells) of the same molecule?
The value was “decreased expression”.

What about the reduction of viability (HCMEC/D3 cells [2]) of the same molecule?
The reduction of viability was “up to 30%”.

What about the “signs of apoptosis or necrosis by visual assessment” value (HCMEC/D3 cells [3]) of the same molecule?
Its value is “did not show signs of apoptosis or necrosis”.

What about the cell cycle states (HCMEC/D3 cells [4]) of the same molecule?
The cell cycle states was “slight decreased G1 and M states”.

What about the CCL2 secretion (HCMEC/D3 cells [5]) of the same molecule?
Its CCL2 secretion is “significant downregulation”.

And the “cytokine secretion profile (TNF-α, IFNg, IL-17A, IL6, IL-1b, prolactin, CCL8, CCL4)” value (HCMEC/D3 cells [5])?
The value was “pro-inflammatory secretion profile”.

What about the “cellular drug (platinum) accumulation due to BIA addition” value (HCMEC/D3 cells [6]) of the same molecule?
Its value is “did not observe any advantage in drug accumulation”.

What about the “CDH5 expression in contra-lateral healthy brain regions” value [7] of the same molecule?
Its value is “did not observe significant changes in expression of CDH5”.

What about the “CDH5 in CD31+ endothelial cells and CDH5+ tumor cells” value [7] of the same molecule?
Its value is “striking decrease of CDH5”.

What about the “Claudin-5 staining in tissue” value ([7]; G9-PCDH xenograft) of the same molecule?
Its value is “no visible differences in Claudin-5 staining”.

What about the “ZO-1 expression in tissue” value ([7]; G9-PCDH xenograft) of the same molecule?
Its value is “mild reductions of ZO-1 expression”.

And the hydrophobicity [8]?
Its hydrophobicity is “highly hydrophobic”.

What about the “tumor migration and growth (previously reported)” value (murine GBM models; GBM in vitro and in vivo) of the same molecule?
Its value is “halted tumor migration and growth in vitro and in vivo”.

What about the “angiogenesis of intra-cranial murine GBM models (previously reported)” value (murine GBM models; mouse, in vivo) of the same molecule?
The value was “reduced angiogenesis”.
